# Assay results reported in US9714231B2, “Pyrrolidine GPR40 modulators” (BRISTOL-MYERS SQUIBB COMPANY, priority 2012, dated 2017).
# Counter-ions that a name gives are not always drawn. Like-named read-outs stand apart in the source and are kept apart here.
# Columns and labels:
# [1] = molecular target: T1, human GPR40 (Homo sapiens, UniProt O14842); test: FDSS-based intracellular calcium assay (Human GRP40 in vitro assay); type: cell-based; parameters: 3xFLAG; expressed in transfected cells; settings: cells expressing GPR40, intracellular Ca2+ response, FDSS reader; read-out: hGPR40 EC50
# Procedure, shortened: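 GPR40-expressing cells, plated overnight in serum-free phenol red-free DMEM, loaded with Fluo-3 in HBSS with 1.7 mM probenecid for 30 min at 37° C. Compounds in DMSO, diluted in assay buffer, added as 3× solutions; intracellular Ca^2+ response read on FDSS.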
# [2] = molecular target: T1, human GPR40
# T1 sequence (O14842 whole entry): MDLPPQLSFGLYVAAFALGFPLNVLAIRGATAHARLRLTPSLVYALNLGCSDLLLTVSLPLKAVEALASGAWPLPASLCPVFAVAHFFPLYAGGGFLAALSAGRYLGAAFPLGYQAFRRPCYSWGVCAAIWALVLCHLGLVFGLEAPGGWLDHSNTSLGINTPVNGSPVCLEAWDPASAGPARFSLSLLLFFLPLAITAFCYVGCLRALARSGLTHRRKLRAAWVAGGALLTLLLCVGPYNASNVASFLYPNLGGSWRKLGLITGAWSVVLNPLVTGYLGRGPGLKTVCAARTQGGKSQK
Compound,EC50 [1] [nM],EC50 [2] [nM]
"CCOc1ccc(F)c(N2CCC(Oc3ccc(N4C[C@H](OC)[C@@H](C)[C@@H]4CC(=O)O)cc3)CC2)c1 [Example 121, 2-((2S,3S,4R)-1-(4-((1-(5-Ethoxy-2-fluorophenyl)piperidin-4-yl)oxy)phenyl)-4-methoxy-3-methylpyrrolidin-2-yl)acetic acid, TFA]",140,42
"COc1ccc(F)c(N2CCC(Oc3ccc(N4CCCC4CC(=O)O)cc3)CC2)c1 (single isomer, unassigned) [Example 48, Isomer 2, 2-(1-(4-((1-(2-Fluoro-5-methoxyphenyl)piperidin-4-yl)oxy)phenyl)pyrrolidin-2-yl)acetic acid]",1400,2500
"COc1ccc(F)c(N2CCC(Cc3ccc(N4C[C@H](C(F)(F)F)C[C@@H]4CC(=O)O)cc3)CC2)c1 [Example 16, 2-((2R,4R)-1-(4-((1-(2-Fluoro-5-methoxyphenyl)piperidin-4-yl)methyl)phenyl)-4-(trifluoromethyl)pyrrolidin-2-yl)acetic acid, HCl]",530,73
"CCOc1ccc(F)c(N2CCC(Oc3ccc(N4C[C@H](C(F)(F)F)C[C@@H]4CC(=O)O)cc3)C(CC(C)C)C2)c1 (single isomer, unassigned) [Example 35, Isomer 2, HCl]",330,17
"CCOc1ccc(F)c(N2CCC(Oc3ccc(N4C[C@H](Oc5cccc(Cl)c5)C[C@@H]4CC(=O)O)cc3)CC2)c1 [Example 69, 2-((2R,4R)-4-(3-Chlorophenoxy)-1-(4-(1-(5-ethoxy-2-fluorophenyl)piperidin-4-yloxy)phenyl)pyrrolidin-2-yl)acetic acid]",160,–
"CCOc1ccc(F)c(N2CCC(Oc3ccc(N4C[C@H](OC)[C@@H](C5CC5)[C@@H]4CC(=O)O)cc3)CC2)c1 [Example 90, 2-((2S,3S,4R)-3-Cyclopropyl-1-(4-((1-(5-ethoxy-2-fluorophenyl)piperidin-4-yl)oxy)phenyl)-4-methoxypyrrolidin-2-yl)acetic acid, TFA]",190,–
"CCOc1ccc(F)c(N2CCC(Oc3ccc(N4C[C@H](c5cnn(C)c5)C[C@@H]4CC(=O)O)cc3)CC2)c1 [Example 126, 2-((2R,4S)-1-(4-((1-(5-Ethoxy-2-fluorophenyl)piperidin-4-yl)oxy)phenyl)-4-(1-methyl-1H-pyrazol-4-yl)pyrrolidin-2-yl)acetic acid, TFA]",810,–
"CCOc1ccc(F)c(N2CCC(Oc3ccc(N4C[C@H](n5ccnn5)C[C@@H]4CC(=O)O)cc3)CC2)c1 [Example 81, 2-((2R,4R)-1-(4-(1-(5-Ethoxy-2-fluorophenyl)piperidin-4-yloxy)phenyl)-4-(1H-1,2,3-triazol-1-yl)pyrrolidin-2-yl)acetic acid]",1000,–
"COc1ccc(C(C)C)c(N2CCC(Oc3ccc(N4C[C@H](OC)C[C@@H]4CC(=O)O)cc3)CC2)c1 [Example 60, 2-((2R,4R)-1-(4-(1-(2-Isopropyl-5-methoxyphenyl)piperidin-4-yloxy)phenyl)-4-methoxypyrrolidin-2-yl)acetic acid, TFA]",190,–
"CCOc1ccc(F)c(N2CCC(Oc3ccc(N4C[C@H](C(F)(F)F)C[C@@H]4CC(=O)O)cc3)C(C)C2C)c1 (single isomer, unassigned) [Example 44, Isomer 1, HCl]",500,–

# More lines, now with the values ahead:
EC50 [1] [nM],EC50 [2] [nM],Compound
250,72,"COc1cc(N2CCC(Oc3ccc(N4C[C@H](C(F)(F)F)C[C@@H]4CC(=O)O)c(F)c3F)C(C)C2)c(Cl)cn1 (stereo partly drawn) [Example 140, 2-((2R,4R)-1-(4-((3,4-trans)-1-(5-Chloro-2-methoxypyridin-4-yl)-3-methylpiperidin-4-yloxy)-2,3-difluorophenyl)-4-(trifluoromethyl)pyrrolidin-2-yl)acetic acid]"
102,100,"COc1cc(N2CCC(Oc3ccc(N4C[C@H](OC)[C@@H](C)[C@@H]4CC(=O)O)cc3F)C(C)C2)c(Cl)cn1 (stereo partly drawn) [Example 98, 2-((2S,3S,4R)-1-(4-(((3,4-trans)-1-(5-Chloro-2-methoxypyridin-4-yl)-3-methylpiperidin-4-yl)oxy)-3-fluorophenyl)-4-methoxy-3-methylpyrrolidin-2-yl)acetic acid]"
600,140,"COc1ccc(F)c(N2CCC(Oc3ccc(N4C[C@H](OC)C[C@@H]4CC(=O)O)cc3)C(C)C2)c1 (single isomer, unassigned) [Example 52, Isomer 2]"
38,4,"COc1cc(N2CCC(Oc3ccc(N4C[C@H](OC)[C@@H](C)[C@@H]4CC(=O)O)cn3)CC2)c(C2CCCC2(C)C)cn1 (single isomer, unassigned) [Example 151, Isomer 1, HCl]"
952,950,"COc1cc(N2CCC(Cc3ccc(N4C[C@H](OC)C[C@@H]4CC(=O)O)cc3)CC2)c(Cl)cn1 [Example 102, 2-((2R,4R)-1-(4-((1-(5-Chloro-2-methoxypyridin-4-yl)piperidin-4-yl)methyl)phenyl)-4-methoxypyrrolidin-2-yl)acetic acid]"
49,49,"COc1ccc(F)c(N2CCC(Oc3ccc(N4CC(F)(F)C[C@@H]4CC(=O)O)cc3)C(C)C2)c1 (single isomer, unassigned) [Example 53, Isomer 2, HCl]"
3400,2500,"COc1cc(N2CCC(Oc3cc(F)c(N4C[C@H](OC)C[C@@H]4CC(=O)O)c(F)c3)C(C)C2)c(Cl)cn1 (stereo partly drawn) [Example 144, 2-((2R,4R)-1-(4-((3,4-trans)-1-(5-Chloro-2-methoxypyridin-4-yl)-3-methylpiperidin-4-yloxy)-2,6-difluorophenyl)-4-methoxypyrrolidin-2-yl)acetic acid, TFA]"
350,–,"COc1cc(N2CCC(Oc3ccc(N4C[C@H](OC)C[C@@H]4CC(=O)O)cc3)CC2)c(Cl)cn1 [Example 87, 2-((2R,4R)-1-(4-((1-(5-Chloro-2-methoxypyridin-4-yl)piperidin-4-yl)oxy)phenyl)-4-methoxypyrrolidin-2-yl)acetic acid, TFA]"
90,–,COc1cc(N2CCC(Oc3ccc(N4C[C@H](F)[C@@H](C)[C@@H]4CC(=O)O)cn3)C(C)C2)c(Cl)cn1 (stereo partly drawn) [Example 146]
200,–,"COc1cc(N2CC[C@@H](Oc3ccc(N4C[C@H](OC)[C@@H](C)[C@@H]4CC(=O)O)cn3)[C@H](C)C2)c(C2=CCCC2(C)C)cn1 [Example 153, 2-((2S,3S,4R)-1-(6-(((3R,4R)-1-(5-(5,5-Dimethylcyclopent-1-en-1-yl)-2-methoxypyridin-4-yl)-3-methylpiperidin-4-yl)oxy)pyridin-3-yl)-4-methoxy-3-methylpyrrolidin-2-yl)acetic acid, HCl]"
450,–,"COc1cc(N2CCC(Oc3ccc(N4C[C@H](OC)[C@@H](C)[C@@H]4CC(=O)O)cc3)C(C)C2)c(F)cc1F (single isomer, unassigned) [Example 169, Isomer 2]"
63,–,"COc1cc(N2CCC(Oc3ccc(N4C[C@H](F)[C@@H](C)[C@@H]4CC(=O)O)cc3F)C(C)C2)c(Cl)cn1 (stereo partly drawn) [Example 156, 2-((2S,3S,4R)-1-(4-(((3,4-trans)-1-(5-Chloro-2-methoxypyridin-4-yl)-3-methylpiperidin-4-yl)oxy)-3-fluorophenyl)-4-fluoro-3-methylpyrrolidin-2-yl)acetic acid]"
